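These data come from cells grown in 96-well plates and exposed to compound for 48 hours at five concentrations. GI50 is the concentration that inhibits growth by half.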 Calls of active or inactive are those of the source. Cut-off read from the data, not from the text of the source: active = GI50 up to about 1.1 µM and inactive = higher.
Legend:
Assay in all cases: inhibition of tumour cell growth, NCI panel, 48 h
CCRF-CEM = system: CCRF-CEM
COLO 205 = system: COLO 205
HL-60 = system: HL-60
LOX IMVI = system: LOX IMVI
M14 = system: M14
Malme-3M = system: Malme-3M
NCI-H23 = system: NCI-H23
NCI-H522 = system: NCI-H522
OVCAR-3 = system: OVCAR-3
RXF 393 = system: RXF 393
SF-295 = system: SF-295
SF-539 = system: SF-539
SK-MEL-28 = system: SK-MEL-28
SK-MEL-2 = system: SK-MEL-2
SNB-19 = system: SNB-19
U-251 = system: U-251
UO-31 = system: UO-31
A498 = system: A498
CAKI-1 = system: CAKI-1
TK-10 = system: TK-10

Measured: GI50

Cc1cn(C2CC(O)C(CO)C2C)c(=O)[nH]c1=O (stereo not given)
inactive: CCRF-CEM > 100 µM | COLO 205 > 100 µM | HL-60 > 100 µM | LOX IMVI > 100 µM | M14 > 100 µM | Malme-3M > 100 µM | NCI-H23 > 100 µM | NCI-H522 > 100 µM | OVCAR-3 > 100 µM | RXF 393 > 100 µM | SF-295 > 100 µM | SF-539 > 100 µM | SK-MEL-28 > 100 µM | SK-MEL-2 > 100 µM | SNB-19 > 100 µM | U-251 > 100 µM | UO-31 > 100 µM

O[C@@]12Cc3c([nH]c4ccccc34)[C@@H]3Oc4cccc5c4[C@@]31CCN(CC1CC1)[C@@H]2C5
inactive: A498 25.2 µM | CAKI-1 19.2 µM | CCRF-CEM 11.3 µM | COLO 205 31.4 µM | LOX IMVI 18.9 µM | M14 23.7 µM | Malme-3M 19.5 µM | NCI-H23 30.7 µM | NCI-H522 22.8 µM | OVCAR-3 22.3 µM | SF-539 20.9 µM | SK-MEL-28 12.7 µM | SK-MEL-2 26.5 µM | SNB-19 33 µM | TK-10 19.2 µM | U-251 39.7 µM | UO-31 18.9 µM

c1ccc(CCn2cncn2)cc1
inactive: CCRF-CEM > 100 µM | COLO 205 > 100 µM | HL-60 > 100 µM | M14 > 100 µM | Malme-3M > 100 µM | NCI-H23 > 100 µM | NCI-H522 > 100 µM | OVCAR-3 > 100 µM | SF-295 > 100 µM | SF-539 > 100 µM | SK-MEL-28 > 100 µM | SNB-19 > 100 µM | TK-10 > 100 µM | U-251 > 100 µM | UO-31 > 100 µM

CC(C)=CCC/C(C)=C/CCC1(C)C=Cc2c(c3ccccc3oc2=O)O1 (stereo not given)
inactive: A498 13.4 µM | CAKI-1 17.2 µM | CCRF-CEM 38.5 µM | COLO 205 19.1 µM | HL-60 23.8 µM | LOX IMVI 18 µM | Malme-3M 27.6 µM | NCI-H23 14.8 µM | NCI-H522 14.7 µM | OVCAR-3 18.1 µM | RXF 393 3.71 µM | SF-295 18.8 µM | SF-539 16.1 µM | SK-MEL-28 16.1 µM | SK-MEL-2 17.4 µM | SNB-19 20.5 µM | U-251 15.3 µM | UO-31 15.5 µM

CCSc1nc(N/N=C/c2cccs2)c2cnn(CO)c2n1
inactive: A498 2.18 µM | CAKI-1 2.66 µM | COLO 205 4.73 µM | HL-60 5.15 µM | M14 6.11 µM | Malme-3M 13.8 µM | NCI-H23 7.05 µM | NCI-H522 3.71 µM | OVCAR-3 5.86 µM | RXF 393 3.66 µM | SF-295 8.13 µM | SF-539 10.5 µM | SK-MEL-28 14.9 µM | SK-MEL-2 10.6 µM | SNB-19 10.8 µM | TK-10 6.14 µM | U-251 6.85 µM | UO-31 2.81 µM

COc1cc2c(cc1OC)-c1cc3ccccc3c[n+]1CC2
inactive: CAKI-1 > 100 µM | CCRF-CEM > 100 µM | COLO 205 37.6 µM | LOX IMVI > 100 µM | M14 > 100 µM | Malme-3M 25.4 µM | NCI-H23 > 100 µM | NCI-H522 18.8 µM | OVCAR-3 51.5 µM | RXF 393 > 100 µM | SF-295 74.8 µM | SF-539 > 100 µM | SK-MEL-28 > 100 µM | SK-MEL-2 > 100 µM | SNB-19 > 100 µM | TK-10 > 100 µM | U-251 33.6 µM | UO-31 > 100 µM

CCCCCCCCCCCCCCCCCc1cc(Cl)nc(Cl)n1
inactive: CCRF-CEM > 100 µM | HL-60 50.8 µM | LOX IMVI > 100 µM | M14 > 100 µM | Malme-3M > 100 µM | NCI-H23 > 100 µM | OVCAR-3 > 100 µM | RXF 393 > 100 µM | SF-295 > 100 µM | SF-539 > 100 µM | SK-MEL-28 > 100 µM | SK-MEL-2 > 100 µM | SNB-19 > 100 µM | TK-10 > 100 µM | U-251 > 100 µM | UO-31 > 100 µM

N#Cc1ccc(-c2nc(C#N)c(N)o2)cc1
inactive: CAKI-1 > 10 µM | CCRF-CEM > 10 µM | COLO 205 > 10 µM | HL-60 > 10 µM | LOX IMVI > 10 µM | M14 > 10 µM | Malme-3M > 10 µM | NCI-H23 > 10 µM | NCI-H522 > 10 µM | RXF 393 > 10 µM | SF-295 > 10 µM | SF-539 > 10 µM | SK-MEL-28 > 10 µM | SNB-19 > 10 µM | TK-10 > 10 µM | UO-31 > 10 µM

Reference: ChEMBL document CHEMBL1201862, “PubChem BioAssay data set” (2004)
